The values below come from paper PMC6156508, “GA-Hecate antiviral properties on HCV whole cycle represent a new antiviral class and open the door for the development of broad spectrum antivirals” (Scientific Reports, 2018).

In series [1] the test system is Huh-7.5 cells harboring SGR-JFH-1 Feo. The series is described as follows: MTT cytotoxicity in hepatocytes. Format: cell-based, human. As to conditions: for CC50 (50% cytotoxic concentration): 48 h incubation, SGR-Feo-JFH-1 Huh-7.5 cells, triplicate in three independent assays; for maximum non-toxic (safe) concentration in hepatocytes: arbitrary threshold of 80% cell viability, 48 h. From the text:
(§1) Figure 2 Hecate and its derivative-peptide effects on subgenomic HCV genotype 2a replication and hepatotoxicity. (A) Hecate. (B) Lys- Hecate. (C) GA-Hecate. (D) GA2-Hecate. (E) Acetyl-Hecate. (F) Glu-Hecate. Luciferase assays report HCV replication and MTT assays report the viability of Huh-7.5 cells harboring SGR-JFH-1 Feo under peptide treatment. Water was used as a negative control of virus replication inhibition and cell death (Control (−)), and Cyclosporine A was used as a positive control for virus replication inhibition (Control (+)). Red dotted lines represent the arbitrary threshold of 80% cell viability, and blue dotted lines represent the maximum inhibition presented by Hecate at the maximum safe concentration. Bars represent triplicates of the three independent assays. ***P < 0.01 vs control (−).
Peptide cytotoxicity profiles were measured by the MTT [3-(4,5-dimethylthiazol- 2-yl)-2,5-diphenyl tetrazolium bromide] (Sigma–Aldrich) method. Twenty-four hours before treatment, 5 × 10^3 SGR-harboring cell lines (SGR-Feo-JFH-1 or S52/SG-neo) were cultured with supplemented DMEM in a 96-multi-well plate and incubated at 37 °C in a humidified 5% CO2 incubator. On the subsequent day, peptide-containing medium was added at the following final concentrations: 2.5, 5, 10 and 20 μM. The tested peptides were Hecate and its derivatives, which included the following: lysine addition (Lysine-Hecate/Lys-Hecate); one or two molecules of Gallic Acid (GA-Hecate and GA2-Hecate); one acetyl radical (Acetyl-Hecate) or Glutamic acid (Glu-Hecate). After 48 h of incubation, peptide-media was removed, and MTT at a final concentration of 1 mg/mL was added to the wells, incubated for 30 minutes and subsequently replaced by 100 μL of DMSO. Absorbance was measured at 562 nm, using a plate spectrophotometer (FLUOstar Omega/BMG LABTECH, Offenburg, BW, DE). Cell viability was calculated considering water-treated cells (peptides diluent) as a negative control. All experiments were performed in triplicate and in three independent replicates. Further assays were performed considering at least 80% viability of the treated cells.
(§2) GA-Hecate toxicity and viral inhibition profile in 24, 48 and 72h post-treatment in […]
(§3) GA-Hecate toxicity and viral inhibition capacity were evaluated at 24, 48 and 72h post-treatment. Tested concentrations were 1.25; 2.5; 5; 10; 20; and 40 µM. At the end of every incubation, cells were stained using MTT as previously described. Similarly, at every time point, treated cells were lysed using PLB and summited to Luminescence analysis as previously described. […]

Series [2] deals with HCV subgenomic replicon SGR-Feo-JFH-1 (genotype 2a). Nature of the series: HCV subgenomic replicon replication, luciferase assay (genotype 2a). Format: cell-based, hepatitis C virus. As to conditions: for SI (selectivity index), ratio CC50/EC50 / inhibition of HCV replication at the maximum safe concentration: 48 h, genotype 2a replicon; for pEC50: Huh-7.5 harbouring SGR-Feo-JFH-1 genotype 2a, 48 h treatment, 2.5-20 μM, luciferase, triplicate in three independent assays, read-out: EC50 (50% effective concentration for HCV); for inhibition of HCV replication at the maximum safe concentration: at each peptide's maximum safe concentration (Hecate 10 μM; Lys-, Glu-, Acetyl-Hecate 5 μM).
Source text: as §1
Cell lines harboring subgenomic or genomic replicons were seeded at 5 × 10^3 cells /well on 96-well plates and the compounds were added 24 h post-seeding, in a concentration range between 2.5–20 μM. After 48 h of treatment, the cells were disrupted with 30 μL of passive lysis buffer (Promega, Madison, WI, USA), and luciferase substrate (Promega, Madison, WI, USA) was automatically added to each sample. Luciferase activity was measured using a luminometer (FLUOstar Omega/BMG LABTECH, Offenburg, BW, DE). The same assays were performed in Huh-7.5 cell lines harboring SGR-JFH1 Feo, S52/SG-neo or FL-J6/JFH-50C19Rluc2AUbi. Cyclosporine A (Sigma-Aldrich) at 1 μM was used as positive control of viral replication inhibition and dH2O as negative control.
as §2, §3
(In antiviral work, replicon cells carry a viral genome segment that copies itself.)

pEC50: −log10 of the molar value. Where no end group is shown, it is not given here.

In the case of `CC(C)C[C@H](NC(=O)[C@H](C)NC(=O)[C@H](CCCCN)NC(=O)[C@H](CCCCN)NC(=O)[C@H](CC(C)C)NC(=O)[C@H](C)NC(=O)[C@H](CCCCN)NC(=O)[C@H](CCCCN)NC(=O)[C@H](CC(C)C)NC(=O)[C@H](CCCCN)NC(=O)[C@H](CCCCN)NC(=O)[C@H](CC(C)C)NC(=O)[C@H](C)NC(=O)[C@H](CCCCN)NC(=O)[C@H](CCCCN)NC(=O)[C@H](CC(C)C)NC(=O)[C@H](C)NC(=O)[C@H](CCCCN)NC(=O)[C@H](CC(C)C)NC(=O)[C@H](C)NC(=O)[C@H](CC(C)C)NC(=O)[C@H](C)NC(=O)[C@H](Cc1ccccc1)NC(=O)[C@@H](N)CCCCN)C(N)=O` [Lys-Hecate], in series [1], the “CC50 (50% cytotoxic concentration)” value is 7.97 µM and the “maximum non-toxic (safe) concentration in hepatocytes” value (“maximum non-toxic” for short) is 5 µM. In series [2], the “SI (selectivity index), ratio CC50/EC50” value is on record as 3.06 and the pEC50 is 5.59.
For “Ac-FALALKALKKALKKLKKALKKAL-NH2 [Acetyl-Hecate]”, in series [1], the “CC50 (50% cytotoxic concentration)” value came to 9.43 µM and the “maximum non-toxic” value amounted to 5 µM. Also, in series [2], the pEC50 is 5.42 and the “inhibition of HCV replication at the maximum safe concentration” value is listed as “approximately 65%”.
As to FALALKALKKALKKLKKALKKAL-NH2 [Hecate], in series [1], the “CC50 (50% cytotoxic concentration)” value is 12.17 µM and the “maximum non-toxic” value turned out to be 10 µM. Further, in series [2], the “SI (selectivity index), ratio CC50/EC50” value is 1.42 and the pEC50 was 5.07.
On to “H-EFALALKALKKALKKLKKALKKAL-NH2 [Glu-Hecate]”, for which, in series [1], the “CC50 (50% cytotoxic concentration)” value turned out to be 9.12 µM and the “maximum non-toxic” value was 5 µM. Further, in series [2], the “SI (selectivity index), ratio CC50/EC50” value is 2.76; the pEC50 is 5.48; the “inhibition of HCV replication at the maximum safe concentration” value is “approximately 65%”.
